How the values were obtained:
[1] = test system: luciferase production in the lung; assay: Delivery of Firefly Luciferase (FFL) mRNA by intratracheal administration via catheter, IVIS imaging; format: in vivo, male CD1 mice; conditions: for FFLuc (Avr. Rad.): single intratracheal administration, lung; for in vivo FFL protein production (FIG. 8), in words: intratracheal delivery via catheter of FFL mRNA lipid nanoparticles to mice
Procedure: Lipid nanoparticle formulations 1, 2 and 4 were administered via intratracheal pulmonary delivery. Compound B was the only cationic lipid evaluated via intratracheal pulmonary delivery with lipid nanoparticle formulation 2. Compound A was the only cationic lipid evaluated via intratracheal pulmonary delivery with lipid nanoparticle formulation 4. All other cationic lipids were evaluated via intratracheal pulmonary delivery with lipid nanoparticle formulation 1.
Lipid nanoparticle formulations 1, 2 and 4 listed in Table 1 comprising FFL mRNA, cationic lipid, DMG-PEG2000, cholesterol and DOPE were administered to male CD1 mice (6-8 weeks old) by a single intratracheal administration via Catheter® (50 μl/animal) while under anesthesia. At approximately 24 hours post-dose, the animals were dosed with luciferin at 150 mg/kg (60 mg/mi) by intraperitoneal injection at 2.5 ml/kg. After 5-15 minutes, all animals were imaged using an IVIS imaging system to measure luciferase production in the lung.

[2] = Lipid degradability by human lung S9 in vitro; format: in vitro ADME; conditions: 2 μM lipid, 2.4 mg/ml lung S9, pH 7.4, 37° C., time points up to 48 hr
Procedure: (§1) Assay format—4 or 5 time points in triplicate.
(§2) • 1) Plan experiment, compounds, and reagents. • 2) Dissolve each lipid in DMSO or IPA to make 5 mM stock, then dilute by IPA to 200 μM work solution. • 3) Thaw mouse and human lung S9. • 4) Prepare pooled incubation mixture as in the reaction formulas below on ice. • 5) Aliquot 495 μL incubation mixture prepared in step #4 to each well of a 2 mL 96-well plate. • 6) Add 5 μL compound to each well to initiate the reaction. Take t0 samples (as in step #8). • 7) Cover the plate with 2 layers of breathable seals and incubate the plate on an orbital shaker at 150 rpm in a 37° C. CO2 incubator. • 8) At each time point, pipette to mix the incubation mixture 5 times, then take 70 μL of incubation mixture to a fresh plate. Store in −20° C. freezer immediately. • 9) Add 210 μL (3× volume) of the cold stop solution to each well of the sample plates collected. Mix at 600 rpm on an orbital shaker for 15 min. • 10) Centrifuge the quenched plates at 3800 rpm for 10 min at 4° C. and transfer supernatant to fresh plates. • 11) Load the supernatant on filter plates and centrifuge again at 3800 rpm for 5 min at 4° C. Collect final samples in fresh plates for LC/MS. • 11. Time course and stop solutions: 4-5 Time points (hour): e.g. 0, 4, 8, 24, 48 hr stop solution: 1:1:1 ACN/MeOH/IPA (v/v/v) with propranolol & MC3 as internal standard. Store at 4° C.

[3] = Lipid degradability by mouse lung S9 in vitro; format: in vitro ADME; conditions: 2 μM lipid, 2.4 mg/ml lung S9, pH 7.4, 37° C., time points up to 48 hr
Procedure: as §1, §2

[4] = dose 10 μg/Animal, lipid nanoparticle formulation 1, approximately 24 hours post-dose
[5] = dose 5 μg/Animal, lipid nanoparticle formulation 1, approximately 24 hours post-dose

## CCCCCCCCCCCCC(O)CN(CCCC(=O)Oc1c(OC)cc(C(=O)OCCCN(C)C)cc1OC)CC(O)CCCCCCCCCCCC (stereo not shown) [Compound A, reference compound]
[1]; dose 10 μg/Animal, lipid nanoparticle formulation 4, approximately 24 hours post-dose
  FFLuc (Avr. Rad.): 221,320 p/s/cm^2/sr

## CCCCCCCCOC(=O)CC(CC(=O)OCCCCCCCC)(OC(=O)CCN(C)C)C(=O)OCCCCCCCC [Compound B, reference compound]
[1]; dose 10 μg/Animal, lipid nanoparticle formulation 2, approximately 24 hours post-dose
  FFLuc (Avr. Rad.): 139,058 p/s/cm^2/sr

## CCCCC/C=C/COC(=O)CC(CC(=O)OC/C=C/CCCCC)(OC(=O)CCC(=O)Oc1c(OC)cc(C(=O)OCCCN(C)C)cc1OC)C(=O)OC/C=C/CCCCC [Compound III]
[2]
  In vitro degradation Human lung S9: 17.1 h
[3]
  In vitro degradation Mouse lung S9: 6.8 h
[1]; [4]
  FFLuc (Avr. Rad.): 353,012 p/s/cm^2/sr

## CCCCCCCCOC(=O)CC(CC(=O)OCCCCCCCC)(OC(=O)CCC(=O)Oc1c(OC)cc(C(=O)OCCCN(C)C)cc1OC)C(=O)OCCCCCCCC [Compound II]
[2]
  In vitro degradation Human lung S9: 20.2 h
[3]
  In vitro degradation Mouse lung S9: 16.6 h
[1]; [5]
  FFLuc (Avr. Rad.): 592,250 p/s/cm^2/sr
[1]
  in vivo FFL protein production (FIG. 8), in words: high levels of in vivo FFL protein production

## CCCCCCCCOC(=O)CC(CC(=O)OCCCCCCCC)(OC(=O)CCC(=O)Oc1c(OC)cc(C(=O)OCCN(C)C)cc1OC)C(=O)OCCCCCCCC [Compound I]
[2]
  In vitro degradation Human lung S9: 20.2 h
[3]
  In vitro degradation Mouse lung S9: 16.2 h
[1]; [5]
  FFLuc (Avr. Rad.): 158,516 p/s/cm^2/sr
[1]
  in vivo FFL protein production (FIG. 8), in words: high levels of in vivo FFL protein production

## CCCCCC#CCOC(=O)CC(CC(=O)OCC#CCCCCC)(OC(=O)CCC(=O)Oc1c(OC)cc(C(=O)OCCCN(C)C)cc1OC)C(=O)OCC#CCCCCC [Compound V]
[2]
  In vitro degradation Human lung S9: 14.8 h
[3]
  In vitro degradation Mouse lung S9: 1.3 h
[1]; [4]
  FFLuc (Avr. Rad.): 567,300 p/s/cm^2/sr

## CCCCCCCCOC(=O)CC(CC(=O)OCCCCCCCC)(OC(=O)CCC(=O)Oc1c(OC)cc(/C=C/C(=O)OCCCN(C)C)cc1OC)C(=O)OCCCCCCCC [Compound XXVI]
[2]
  In vitro degradation Human lung S9: long (over 48 h
[3]
  In vitro degradation Mouse lung S9: 36 h
[1]; [5]
  FFLuc (Avr. Rad.): 140,620 p/s/cm^2/sr
[1]
  in vivo FFL protein production (FIG. 8), in words: high levels of in vivo FFL protein production

## CCCCCCCCOC(=O)CC(CC(=O)OCCCCCCCC)(OC(=O)/C=C/C(=O)Oc1c(OC)cc(C(=O)OCCCN(C)C)cc1OC)C(=O)OCCCCCCCC [Compound X]
[1]; [4]
  FFLuc (Avr. Rad.): 173,197 p/s/cm^2/sr

## CC(C)CCCC(C)[C@H]1CCC2C3CC=C4C[C@@H](OC(=O)CCc5c[nH]cn5)CC[C@]4(C)C3CC[C@@]21C (stereo partly shown) [ICE, imidazole cholesterol ester, reference compound]
[1]; [4]
  FFLuc (Avr. Rad.): 7,508 p/s/cm^2/sr

— patent US20260224489A1, “TRICINE AND CITRIC ACID-BASED CATIONIC LIPIDS WITH AROMATIC HEAD GROUPS” (SANOFI, priority 2023, published 2026)
